Test results published in ChEMBL document CHEMBL6087479, “Discovery of a Potent and Selective GSPT1 Molecular Glue Degrader for the Treatment of Castration-Resistant Prostate Cancer” (J Med Chem, 2025).
Calls of active or inactive are those of the source. No cut-off for these calls is given here.

Key:
[1] = system: CWR22R; experiment: Downregulation of BRD2 protein level in human 22Rv1 cells at 500 nM incubated for 6 hrs by mass spectrometry-based label-free quantitative proteomics analysis; type: functional, cell-based
[2] = Binding affinity to […]/DDB1/N-terminal H6-Avi-tagged CRBN TBD (unknown origin) expressed in BL21 (DE3) cells assessed as dissociation constant by BLI assay; set-up: species or system Homo sapiens
[3] = system: CWR22R; experiment: Downregulation of HSP90B1 expression in human 22Rv1 cells incubated for 12 hrs by qRT-PCR analysis; type: functional, cell-based
[4] = system: CWR22R; experiment: Downregulation of AR-V7 mRNA level in human 22Rv1 cells at 500 nM incubated for 12 hrs by qRT-PCR analysis; type: functional, cell-based
[5] = biological target: Protein cereblon/Bromodomain-containing protein 4 (Homo sapiens) (UniProt O60885+Q96SW2); experiment: Molecular glue degradation activity at CRBN/BRD4 in human 22Rv1 cells at 12 to 1000 nM incubated for 6 hrs by Immunoblotting analysis; type: cell-based; conditions: dose 12-1000 nM
Sequence of Protein cereblon/Bromodomain-containing protein 4 (Homo sapiens) (Q96SW2 whole entry, looked up, other chains not shown): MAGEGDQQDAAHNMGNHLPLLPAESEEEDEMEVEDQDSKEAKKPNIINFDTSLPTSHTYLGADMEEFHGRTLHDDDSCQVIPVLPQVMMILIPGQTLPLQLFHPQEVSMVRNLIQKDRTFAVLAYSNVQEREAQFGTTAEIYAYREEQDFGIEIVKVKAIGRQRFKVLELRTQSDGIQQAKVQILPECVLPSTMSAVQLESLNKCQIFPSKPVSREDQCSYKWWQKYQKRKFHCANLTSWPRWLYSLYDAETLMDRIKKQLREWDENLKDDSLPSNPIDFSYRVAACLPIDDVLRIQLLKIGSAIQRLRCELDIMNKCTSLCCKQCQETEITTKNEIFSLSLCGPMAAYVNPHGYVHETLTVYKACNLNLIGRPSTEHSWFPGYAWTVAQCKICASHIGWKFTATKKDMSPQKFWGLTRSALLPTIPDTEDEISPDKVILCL

[6] = system: CWR22R; experiment: Downregulation of BCL-XL level in human 22Rv1 cells at 12 to 1000 nM incubated for 12 hrs by Immunoblotting analysis; type: functional, cell-based; conditions: dose 12-1000 nM
[7] = system: CWR22R; experiment: Antitumor activity against human 22Rv1 cells xenografted in NOD-SCID mouse assessed as tumor growth inhibition at 20 mg/kg, ip administered once daily for 21 days relative to control; type: functional; conditions: 22Rv1, 504 h, time 21 day, read-out: TGI
[8] = system: CWR22R; experiment: cells; conditions: Homo sapiens, 22Rv1, 96 h
Description: Antiproliferative activity against human 22Rv1 cells assessed as inhibition of cell proliferation incubated for 96 hrs by CellTiter-Glo assay

[9] = system: LNCaP; experiment: cells; conditions: Homo sapiens, 96 h
Description: Antiproliferative activity against human LNCaP cells assessed as inhibition of cell proliferation incubated for 96 hrs by CellTiter-Glo assay

[10] = biological target: Bromodomain-containing protein 4 (Homo sapiens, UniProt O60885); experiment: Binding affinity to BRD4 BD1 (unknown origin) assessed as dissociation constant by BLI assay
[11] = system: CWR22R; experiment: Downregulation of AR-FL mRNA level in human 22Rv1 cells at 500 nM incubated for 12 hrs by qRT-PCR analysis; type: functional, cell-based
[12] = system: LNCaP C4-2B; experiment: cells; conditions: Homo sapiens, 96 h
Description: Antiproliferative activity against human LNCaP C4-2B cells assessed as inhibition of cell proliferation incubated for 96 hrs by CellTiter-Glo assay

[13] = biological target: Eukaryotic peptide chain release factor GTP-binding subunit ERF3A (Homo sapiens) (UniProt P15170); conditions: dose 200.0 µM, time 45.0 min
Sequence of Eukaryotic peptide chain release factor GTP-binding subunit ERF3A (Homo sapiens) (P15170 whole entry): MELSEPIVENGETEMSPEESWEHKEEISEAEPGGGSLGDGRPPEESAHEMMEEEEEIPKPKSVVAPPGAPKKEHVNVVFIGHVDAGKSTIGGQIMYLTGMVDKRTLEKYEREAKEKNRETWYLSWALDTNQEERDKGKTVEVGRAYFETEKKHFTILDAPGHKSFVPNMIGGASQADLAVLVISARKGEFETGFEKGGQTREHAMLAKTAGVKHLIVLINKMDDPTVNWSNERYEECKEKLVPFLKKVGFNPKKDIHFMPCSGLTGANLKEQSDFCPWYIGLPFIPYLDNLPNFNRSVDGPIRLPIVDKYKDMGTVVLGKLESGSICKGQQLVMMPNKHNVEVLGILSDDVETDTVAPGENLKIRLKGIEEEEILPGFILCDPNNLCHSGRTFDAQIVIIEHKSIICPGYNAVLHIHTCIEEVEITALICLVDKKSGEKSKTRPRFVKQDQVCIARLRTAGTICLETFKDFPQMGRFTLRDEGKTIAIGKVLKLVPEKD

[14] = system: CWR22R; experiment: Downregulation of GSPT1 protein level in human 22Rv1 cells incubated for 6 hrs by Immunoblotting analysis; type: functional, cell-based; conditions: dose 12-1000 nM
[15] = system: CWR22R; experiment: Downregulation of E2F3 expression in human 22Rv1 cells incubated for 12 hrs by qRT-PCR analysis; type: functional, cell-based
[16] = system: CWR22R; experiment: Downregulation of BCL2 expression in human 22Rv1 cells incubated for 12 hrs by qRT-PCR analysis; type: functional, cell-based
[17] = biological target: Eukaryotic peptide chain release factor GTP-binding subunit ERF3A (Homo sapiens) (UniProt P15170); experiment: Binding affinity to GSPT1 (unknown origin) by BLI assay
[18] = Toxicity in wild-type NOD-SCID mouse assessed as tolerability administered intraperitoneally once daily for 21 days; conditions: in vivo, ip, 504 h, time 21 day
[19] = system: CWR22R; experiment: Downregulation of AR-V7 protein level in human 22Rv1 cells at 12 to 1000 nM incubated for 12 hrs by Immunoblotting analysis; type: functional, cell-based; conditions: dose 12-1000 nM
[20] = system: CWR22R; experiment: Downregulation of PSA mRNA level in human 22Rv1 cells at 500 nM incubated for 12 hrs by qRT-PCR analysis; type: functional, cell-based
[21] = system: CWR22R; experiment: Downregulation of GSPT1 protein level in human 22Rv1 cells at 500 nM incubated for 6 hrs by mass spectrometry-based label-free quantitative proteomics analysis; type: functional, cell-based
[22] = Downregulation of GSPT1 protein level in human 22Rv1 cells at 12 to 1000 nM incubated for 6 hrs by Immunoblotting analysis; conditions: 22Rv1, 6 h
[23] = system: CWR22R; experiment: Downregulation of AR-FL protein level in human 22Rv1 cells at 12 to 1000 nM incubated for 12 hrs by Immunoblotting analysis; type: functional, cell-based; conditions: dose 12-1000 nM
[24] = system: CWR22R; experiment: Downregulation of c-MYC protein level in human 22Rv1 cells at 12 to 1000 nM incubated for 12 hrs by Immunoblotting analysis; type: functional, cell-based; conditions: dose 12-1000 nM
[25] = system: CWR22R; experiment: Downregulation of PSA protein level in human 22Rv1 cells at 12 to 1000 nM incubated for 12 hrs by Immunoblotting analysis; type: functional, cell-based; conditions: dose 12-1000 nM
[26] = system: CWR22R; experiment: Downregulation of GSPT1 protein level in human 22Rv1 cells at 300 nM by Immunoblotting analysis; type: functional, cell-based; conditions: time 1-6 hrs
[27] = system: CWR22R; experiment: Antiproliferative activity against siCRBN knockdown human 22Rv1 cells assessed as inhibition of cell growth by Cell-titer Glo luminescent assay; type: functional, cell-based
[28] = system: CWR22R; experiment: Downregulation of BRD4 protein level in human 22Rv1 cells at 500 nM incubated for 6 hrs by mass spectrometry-based label-free quantitative proteomics analysis; type: functional, cell-based
[29] = system: CWR22R; experiment: Downregulation of TMPRSS2 expression in human 22Rv1 cells incubated for 12 hrs by qRT-PCR analysis; type: functional, cell-based
[30] = system: CWR22R; experiment: Downregulation of CDK2 expression in human 22Rv1 cells incubated for 12 hrs by qRT-PCR analysis; type: functional, cell-based
[31] = system: CWR22R; experiment: Downregulation of EGFR expression in human 22Rv1 cells incubated for 12 hrs by qRT-PCR analysis; type: functional, cell-based
[32] = biological target: Protein cereblon/Eukaryotic peptide chain release factor GTP-binding subunit ERF3A (Homo sapiens) (UniProt Q96SW2+P15170); experiment: Protac activity at CRBN/GSPT1 in human 22Rv1 cells assessed as GSPT1 degradation at 12 to 1000 nM incubated for 6 hrs by Western blotting analysis; type: cell-based; conditions: dose 12-1000 nM
Sequence of Protein cereblon/Eukaryotic peptide chain release factor GTP-binding subunit ERF3A (Homo sapiens) (P15170 whole entry, looked up): as the sequence (P15170 whole entry) above
Sequence of Protein cereblon/Eukaryotic peptide chain release factor GTP-binding subunit ERF3A (Homo sapiens) (Q96SW2 whole entry, looked up): as the sequence (Q96SW2 whole entry, looked up, other chains not shown) above

[33] = system: CWR22R; experiment: Downregulation of c-MYC mRNA level in human 22Rv1 cells at 500 nM incubated for 12 hrs by qRT-PCR analysis; type: functional, cell-based
[34] = system: CWR22R; experiment: Downregulation of MCL-1 level in human 22Rv1 cells at 12 to 1000 nM incubated for 12 hrs by Immunoblotting analysis; type: functional, cell-based; conditions: dose 12-1000 nM
[35] = system: CWR22R; experiment: Antitumor activity against human 22Rv1 cells xenografted in NOD-SCID mouse assessed as tumor growth inhibition at 10 mg/kg, ip administered once daily for 21 days relative to control; type: functional; conditions: 22Rv1, 504 h, time 21 day, read-out: TGI
[36] = system: CWR22R; experiment: Inhibition of colony formation in human 22Rv1 cells at 6.25 to 25 nM incubated for 14 days by crystal violet staining based assay; type: functional, cell-based; conditions: dose 6.25-25 nM, time 14.0 day
[37] = system: CWR22R; experiment: Downregulation of GSPT1 mRNA level in human 22Rv1 cells at 100 to 300 nM incubated for 12 hrs by qRT-PCR analysis; type: functional, cell-based; conditions: dose 100-300 nM
[38] = system: CWR22R; experiment: Downregulation of BCL2 level in human 22Rv1 cells at 12 to 1000 nM incubated for 12 hrs by Immunoblotting analysis; type: functional, cell-based; conditions: dose 12-1000 nM
[39] = system: CWR22R; experiment: Antiproliferative activity against human 22Rv1 cells assessed as inhibition of cell proliferation by CellTiter-Glo assay
[40] = system: CWR22R; experiment: Reduction of GSPT1 in siCRBN transfected human 22Rv1 cells at 500 nM incubated for 6 hrs by Western blotting analysis; type: functional, cell-based

COc1ccc(Br)cc1S(=O)(=O)Nc1cc2c(C)noc2cc1OCC(=O)NCCCCCNc1cccc2c1C(=O)N(C1CCC(=O)NC1=O)C2=O (configuration not stated)
Activity [1]: inactive
Kd [2]: 930 nM
Activity [3]: Active
Activity [4]: Active
Activity [5]: inactive
Activity [6]: Active
inhibition in vivo at 20 mg/kg [7]: 55%
IC50 [8]: 7 nM
IC50 [9]: 34 nM
Kd [10]: 38000 nM
Activity [11]: Active
IC50 [12]: 374 nM
deltaTm [13]: inactive
Activity [14]: Dose-dependent-effect
Activity [15]: Active
Activity [16]: Active
Activity [17]: inactive
Activity [18]: Non-toxic
Activity [19]: Active
Activity [20]: Active
Activity [21]: Active
DC50 [22]: 19 nM
Activity [23]: Active
Activity [24]: Active
Activity [25]: Active
Activity [26]: Time-dependent-effect
Activity [27]: inactive
Activity [28]: inactive
Activity [29]: Active
Activity [30]: Active
Activity [31]: Active
Activity [32]: Active
Activity [33]: Active
Activity [34]: Active
inhibition in vivo at 10 mg/kg [35]: 44%
inhibition [36]: Active
Activity [37]: inactive
Activity [38]: Active
IC50 [39]: 7 nM
Activity [40]: inactive

O=C1CCC(N2Cc3cc(CNC(=O)C(F)(F)c4ccc(Cl)cc4)ccc3C2=O)C(=O)N1 (configuration not stated)
IC50 [39]: 16 nM

COc1ccc(Br)cc1S(=O)(=O)Nc1cc2c(C)noc2cc1OCC(=O)NCCNC(=O)COc1cccc2c1C(=O)N(C1CCC(=O)NC1=O)C2=O (configuration not stated)
IC50 [8]: > 10000 nM
IC50 [9]: > 10000 nM
IC50 [12]: > 10000 nM

Nc1cccc2c1C(=O)N(C1CCC(=O)NC1=O)C2=O (configuration not stated) [POMALIDOMIDE]
IC50 [8]: > 10000 nM
IC50 [9]: > 10000 nM
IC50 [12]: > 10000 nM

COc1ccc(Br)cc1S(=O)(=O)Nc1cc2c(C)noc2cc1OCC(=O)NCCCCCNc1ccc2c(c1)C(=O)N(C1CCC(=O)NC1=O)C2=O (configuration not stated)
IC50 [8]: > 10000 nM
IC50 [9]: > 10000 nM
IC50 [12]: > 10000 nM

COc1ccc(Br)cc1S(=O)(=O)Nc1cc2c(C)noc2cc1OCC(=O)NCCCCCCNC(=O)COc1cccc2c1C(=O)N(C1CCC(=O)NC1=O)C2=O (configuration not stated)
IC50 [8]: > 10000 nM
IC50 [9]: > 10000 nM
IC50 [12]: > 10000 nM

COc1ccc(Br)cc1S(=O)(=O)Nc1cc2c(C)noc2cc1OCC(=O)NCCCCCNC(=O)COc1cccc2c1C(=O)N(C1CCC(=O)NC1=O)C2=O (configuration not stated)
IC50 [8]: > 10000 nM
IC50 [9]: > 10000 nM
IC50 [12]: > 10000 nM

COc1ccc(Br)cc1S(=O)(=O)Nc1cc2c(C)noc2cc1OCC(=O)NCCCNc1ccc2c(c1)C(=O)N(C1CCC(=O)NC1=O)C2=O (configuration not stated)
IC50 [8]: 1380 nM
IC50 [9]: > 10000 nM
IC50 [12]: > 10000 nM

COc1ccc(Br)cc1S(=O)(=O)Nc1cc2c(C)noc2cc1OCC(=O)NCCCNc1cccc2c1C(=O)N(C1CCC(=O)NC1=O)C2=O (configuration not stated)
Activity [5]: inactive
IC50 [8]: 26 nM
IC50 [9]: 100 nM
IC50 [12]: 624 nM
Activity [32]: Active; Moderate Effect Of Degradation Observed

COc1cc2onc(C)c2cc1NS(=O)(=O)c1cc(Br)ccc1OC
IC50 [8]: 1610 nM
IC50 [9]: 2520 nM
IC50 [12]: 1800 nM
